Tests used:
human NHE3 = biological target: T1, human NHE3 (Homo sapiens, UniProt P48764); assay: Cell-based assay of NHE-3 activity (pre-incubation inhibition), human; conditions: for IC50: PS120 fibroblasts stably expressing human NHE3, 10 min pre-incubation with 0-30 μM test compound, read-out: pIC50 (human Preincubation assay) (converted); for % inhibition (human Preincubation assay): PS120 fibroblasts stably expressing human NHE3, pre-incubation with test compound
T1 sequence (P48764 26-834): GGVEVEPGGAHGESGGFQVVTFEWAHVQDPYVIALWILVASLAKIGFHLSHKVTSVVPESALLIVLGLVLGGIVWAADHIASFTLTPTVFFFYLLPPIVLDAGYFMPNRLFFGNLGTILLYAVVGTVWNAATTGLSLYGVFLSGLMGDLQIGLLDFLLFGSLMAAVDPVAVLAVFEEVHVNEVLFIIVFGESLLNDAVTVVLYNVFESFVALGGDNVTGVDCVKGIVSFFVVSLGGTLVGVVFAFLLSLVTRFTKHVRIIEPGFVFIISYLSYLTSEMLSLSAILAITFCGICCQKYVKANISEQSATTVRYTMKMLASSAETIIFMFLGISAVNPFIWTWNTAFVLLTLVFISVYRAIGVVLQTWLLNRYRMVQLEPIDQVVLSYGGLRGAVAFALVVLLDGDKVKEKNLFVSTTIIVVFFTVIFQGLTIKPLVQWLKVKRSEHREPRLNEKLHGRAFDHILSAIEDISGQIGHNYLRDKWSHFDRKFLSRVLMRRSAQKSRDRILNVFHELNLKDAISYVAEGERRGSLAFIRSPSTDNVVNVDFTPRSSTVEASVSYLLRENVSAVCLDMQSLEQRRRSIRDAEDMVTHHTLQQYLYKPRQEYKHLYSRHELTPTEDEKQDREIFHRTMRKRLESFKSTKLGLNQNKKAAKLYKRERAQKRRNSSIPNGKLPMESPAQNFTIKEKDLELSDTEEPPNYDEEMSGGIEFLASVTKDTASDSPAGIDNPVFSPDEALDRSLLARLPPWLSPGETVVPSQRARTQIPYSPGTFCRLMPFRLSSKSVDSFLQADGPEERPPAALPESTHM
Description: Rat and human NHE-3-mediated Na^+-dependent H^+ antiport was measured using a modification of the pH sensitive dye method originally reported by Paradiso (Proc. Natl. Acad. Sci. USA. (1984) 81(23): 7436-7440, which is hereby incorporated by reference in its entirety). PS120 fibroblasts stably expressing human NHE3 were obtained from Mark Donowitz (Baltimore, Md.). Opossum kidney (OK) cells were obtained from the ATCC and propagated per their instructions. The rat NHE-3 gene (GenBank M85300) was introduced into OK cells via electroporation, and cells were seeded into 96 well plates and grown overnight. Medium was aspirated from the wells then incubated for 30 min at 37° C. with NH4Cl-HEPES buffer (20 mM NH4Cl, 80 mM NaCl, 50 mM HEPES, 5 mM KCl, 2 mM CaCl2, 1 mM MgCl2, pH 7.4) containing 5 μM BCECF-AM. Cells were washed once with Ammonium free, Nat-free HEPES (100 mM choline, 50 mM HEPES, 10 mM glucose, 5 mM KCl, 2 mM CaCl2, 1 mM MgCl2, pH 7.4) and incubated in the same buffer for 10 minutes at room temperature to lower intracellular pH with 0-30 μM test compound. […] Changes in intracellular pH were monitored using a FLIPR Tetra® (Molecular Devices, Sunnyvale, Calif.) by excitation at λex 439 to 505 nm, and measuring BCECF fluorescence at λem 538 nm. The initial rate of the fluorescence ratio change was used as a measure of NHE-mediated Na^+/H^+ activity, and reported as the change in fluorescence ratio per minute. Initial rates were plotted as the average 2 or more replicates, and pIC50 values were estimated using GraphPad Prism.

[1] = test system: absorption of sodium from the intestinal lumen; assay: Inhibition of intestinal sodium absorption: rat urinary sodium and fecal form 16 h post-dose; type: in vivo, Sprague-Dawley rats; conditions: for FFS (fecal form score): 16 h post-dose, scale 1-5, group average
Description: Urinary sodium concentration and fecal form were measured to assess the ability of selected example compounds to inhibit the absorption of sodium from the intestinal lumen. Eight-week old Sprague-Dawley rats were purchased from Charles River Laboratories (Hollister, Calif.), were housed 2 per cage, and acclimated for at least 3 days before study initiation. Animals were fed Harlan Teklad Global 2018 rodent chow (Indianapolis, Ind.) and water ad libitum throughout the study and maintained in a standard light/dark cycle of 6 AM to 6 PM. On the day of the study, between 4 PM and 5 PM, a group of rats (n=6) were dosed via oral gavage with test compound or vehicle (water) at a volume of 10 mL/kg. After dose administration animals were placed in individual metabolic cages where they were also fed the same chow in meal form and watered ad libitum. At 16 h post-dose, the urine samples were collected and fecal form was assessed by two independent observations. Fecal forms were scored according to a common scale associated with increasing fecal water to the wettest observation in the cage's collection funnel (1, normal pellet; 2, pellet adhering to sides of collection funnel due to moisture; 3, loss of normal pellet shape; 4, complete loss of shape with a blotting pattern; 5, liquid fecal streams evident). A rat's fecal form score (FFS) was determined by averaging both observational scores for all rats within a group (n=6). The vehicle group average was 1. For urine samples, the volumes were determined gravimetrically and centrifuged at 3,600×g. The supernatants were diluted 100-fold in deionized Milli-Q water then filtered through a 0.2 μm GHP Pall AcroPrep filter plate (Pall Life Sciences, Ann Arbor, Mich.) prior to analysis by ion chromatography. Ten microliters of each filtered extract was injected onto a Dionex ICS-3000 ion chromatograph system (Dionex, Sunnyvale, Calif.). Cations were separated by an isocratic method using 25 mM methanesulfonic acid as the eluent on an IonPac CS12A 2 mm i.d.×250 mm, 8 μm particle size cation exchange column (Dionex). Sodium was quantified using standards prepared from a cation standard mix containing Li^+, Na^+, NH4^+, K^+, Mg^2+, and Ca^2+ (Dionex). The mean mass of sodium urinated for every group in the 16 h period was determined with the vehicle group usually urinating approximately 21 mg sodium. The urine Na (uNa) for rats in the test groups were expressed as a percentage of the vehicle mean and the means were compared to that of the vehicle group by utilizing a one-way analysis of variance coupled with a Dunnett's post hoc test.

[2] = oral gavage 10 mg/kg, urine 16 h post-dose, read-out: uNa Result, uNa (% of vehicle)

SMILES | IC50 (human NHE3) [nM] | % inhibition (human Preincubation assay) (human NHE3) | FFS (fecal form score) ([1]; oral gavage 10 mg/kg) | response vs control in vivo at 10 mg/kg [1, 2] [%] | FFS (fecal form score) ([1]; oral gavage 3 mg/kg) | response vs control in vivo at 3 mg/kg ([1]; oral gavage 3 mg/kg, urine 16 h post-dose, read-out: uNa Result, uNa (% of vehicle)) [%]
CN(C)[C@H]1Cc2c(Cl)cc(Cl)cc2[C@@H]1Oc1ccc(S(=O)(=O)NCCOCCOCCNC(=O)NCCCCNC(=O)NCCOCCOCCNS(=O)(=O)c2ccc(O[C@H]3c4cc(Cl)cc(Cl)c4C[C@@H]3N(C)C)cc2)cc1 [Example 1, (S,S)—N,N′-(10,17-dioxo-3,6,21,24-tetraoxa-9,11,16,18-tetraazahexacosane-1,26-diyl)bis(4-((1S,2S)-4,6-dichloro-2-(dimethylamino)-2,3-dihydro-1H-inden-1-yloxy)benzenesulfonamide)] | < 100 | C (>70%) | 1 | < 35 |  | 
N[C@@H]1CCCN([C@H]2Cc3c(Cl)cc(Cl)cc3[C@@H]2Oc2ccc(S(=O)(=O)NCCOCCOCCNC(=O)NCCCCNC(=O)NCCOCCOCCNS(=O)(=O)c3ccc(O[C@H]4c5cc(Cl)cc(Cl)c5C[C@@H]4N4CCC[C@@H](N)C4)cc3)cc2)C1 [Example 3, (S,S,R)—N,N′-(10,17-dioxo-3,6,21,24-tetraoxa-9,11,16,18-tetraazahexacosane-1,26-diyl)bis(4-((1S,2S)-2-((R)-3-aminopiperidin-1-yl)-4,6-dichloro-2,3-dihydro-1H-inden-1-yloxy)benzenesulfonamide)] | < 100 | C (>70%) |  | 35 to 75 |  | 
O=C(NCCCCNC(=O)NCCOCCOCCNS(=O)(=O)c1ccc(O[C@H]2c3cc(Cl)cc(F)c3C[C@@H]2N2CC[C@@H](O)C2)cc1)NCCOCCOCCNS(=O)(=O)c1ccc(O[C@H]2c3cc(Cl)cc(F)c3C[C@@H]2N2CC[C@@H](O)C2)cc1 [Example 4, (S,S,R)—N,N′-(10,17-dioxo-3,6,21,24-tetraoxa-9,11,16,18-tetraazahexacosane-1,26-diyl)bis(4-((1S,2S)-6-chloro-4-fluoro-2-((R)-3-hydroxypyrrolidin-1-yl)-2,3-dihydro-1H-inden-1-yloxy)benzenesulfonamide)] | < 100 | C (>70%) | 1 | > 75 |  | 
CN(C)[C@H]1Cc2c(Cl)cc(Cl)cc2[C@@H]1Oc1ccc(S(=O)(=O)NCCOCCOCCNC(=O)[C@H](O)[C@@H](O)C(=O)NCCOCCOCCNS(=O)(=O)c2ccc(O[C@H]3c4cc(Cl)cc(Cl)c4C[C@@H]3N(C)C)cc2)cc1 [Example 5, (2R,3R)—N1,N4-bis(2-(2-(2-(4-((1S,2S)-4,6-dichloro-2-(dimethylamino)-2,3-dihydro-1H-inden-1-yloxy)phenylsulfonamido)ethoxy)ethoxy)ethyl)-2,3-dihydroxysuccinamide] | < 100 | C (>70%) | 1 | < 35 |  | 
CN(C)[C@H]1Cc2c(Cl)cc(Cl)cc2[C@@H]1Oc1ccc(S(=O)(=O)NCCOCCOCCNC(=O)COCC(=O)NCCOCCOCCNS(=O)(=O)c2ccc(O[C@H]3c4cc(Cl)cc(Cl)c4C[C@@H]3N(C)C)cc2)cc1 [Example 9, 2,2′-oxybis(N-(2-(2-(2-(4-((1S,2S)-4,6-dichloro-2-(dimethylamino)-2,3-dihydro-1H-inden-1-yloxy)phenylsulfonamido)ethoxy)ethoxy)ethyl)acetamide)] | < 100 | C (>70%) |  |  | 2 | 35 to 75
CN(C)[C@H]1Cc2c(Cl)cc(Cl)cc2[C@@H]1Oc1ccc(S(=O)(=O)NCCOCCOCCNC(=O)CCC(C)(N)CCC(=O)NCCOCCOCCNS(=O)(=O)c2ccc(O[C@H]3c4cc(Cl)cc(Cl)c4C[C@@H]3N(C)C)cc2)cc1 [Example 11, 4-amino-N1,N7-bis(2-(2-(2-(4-((1S,2S)-4,6-dichloro-2-(dimethylamino)-2,3-dihydro-1H-inden-1-yloxy)phenylsulfonamido)ethoxy)ethoxy)ethyl)-4-methylheptanediamide] | < 100 | C (>70%) |  | 35 to 75 |  | 
O=C(NCCCCNC(=O)NCCOCCOCCNC(=O)Nc1cccc(O[C@H]2c3ccccc3C[C@@H]2N2CCCCC2)c1)NCCOCCOCCNC(=O)Nc1cccc(O[C@H]2c3ccccc3C[C@@H]2N2CCCCC2)c1 [Example 13, 1-{2-[2-(2-{[(3-{[(1S,2S)-2-(piperidin-1-yl)-2,3-dihydro-1H-inden-1-yl]oxy}phenyl)carbamoyl]amino}ethoxy)ethoxy]ethyl}-3-{4-[({2-[2-(2-{[(3-{[(1S,2S)-2-(piperidin-1-yl)-2,3-dihydro-1H-inden-1-yl]oxy}phenyl)carbamoyl]amino}ethoxy)ethoxy]ethyl}carbamoyl)amino]butyl}urea] | > 1000 | C (>70%) |  | > 75 |  | 
O=C(NCCCCNC(=O)NCCOCCOCCNS(=O)(=O)c1ccc(O[C@H]2c3ccccc3C[C@@H]2N2CCCCC2)cc1)NCCOCCOCCNS(=O)(=O)c1ccc(O[C@H]2c3ccccc3C[C@@H]2N2CCCCC2)cc1 [Example 14] | < 100 | C (>70%) |  | 35 to 75 |  | 
O=C(NCCCCNC(=O)NCCOCCOCCNS(=O)(=O)c1ccc(O[C@H]2c3cc(Cl)cc(Cl)c3C[C@@H]2N2CCCCC2)cc1)NCCOCCOCCNS(=O)(=O)c1ccc(O[C@H]2c3cc(Cl)cc(Cl)c3C[C@@H]2N2CCCCC2)cc1 [Example 15] | < 100 | B (40-70%) |  | 35 to 75 |  | 
O=C(NCCCCNC(=O)NCCOCCOCCOCCNS(=O)(=O)c1ccc(O[C@H]2c3ccccc3C[C@@H]2N2CCCCC2)cc1)NCCOCCOCCOCCNS(=O)(=O)c1ccc(O[C@H]2c3ccccc3C[C@@H]2N2CCCCC2)cc1 [Example 16] | < 100 | C (>70%) |  | < 35 |  | 

Reference: US10376481B2, “Compounds and methods for inhibiting NHE-mediated antiport in the treatment of disorders associated with fluid retention or salt overload and gastrointestinal tract disorders” (ARDELYX, INC, priority 2012, dated 2019)
